Data on 14 compounds can be found in patent US10981908B2, “Aryl hydrocarbon receptor (AHR) modulator compounds” (PHENEX PHARMACEUTICALS AG, priority 2017, dated 2021).

The target in this assay is T1, AhR (Homo sapiens, UniProt P35869).
T1 construct: The HepG2 CYP1A1-Luc cells do express basal luciferase activity that can be increased via potent AhR agonists or decreased via potent AhR antagonists; endogenous in cells
T1 sequence (P35869 11-848): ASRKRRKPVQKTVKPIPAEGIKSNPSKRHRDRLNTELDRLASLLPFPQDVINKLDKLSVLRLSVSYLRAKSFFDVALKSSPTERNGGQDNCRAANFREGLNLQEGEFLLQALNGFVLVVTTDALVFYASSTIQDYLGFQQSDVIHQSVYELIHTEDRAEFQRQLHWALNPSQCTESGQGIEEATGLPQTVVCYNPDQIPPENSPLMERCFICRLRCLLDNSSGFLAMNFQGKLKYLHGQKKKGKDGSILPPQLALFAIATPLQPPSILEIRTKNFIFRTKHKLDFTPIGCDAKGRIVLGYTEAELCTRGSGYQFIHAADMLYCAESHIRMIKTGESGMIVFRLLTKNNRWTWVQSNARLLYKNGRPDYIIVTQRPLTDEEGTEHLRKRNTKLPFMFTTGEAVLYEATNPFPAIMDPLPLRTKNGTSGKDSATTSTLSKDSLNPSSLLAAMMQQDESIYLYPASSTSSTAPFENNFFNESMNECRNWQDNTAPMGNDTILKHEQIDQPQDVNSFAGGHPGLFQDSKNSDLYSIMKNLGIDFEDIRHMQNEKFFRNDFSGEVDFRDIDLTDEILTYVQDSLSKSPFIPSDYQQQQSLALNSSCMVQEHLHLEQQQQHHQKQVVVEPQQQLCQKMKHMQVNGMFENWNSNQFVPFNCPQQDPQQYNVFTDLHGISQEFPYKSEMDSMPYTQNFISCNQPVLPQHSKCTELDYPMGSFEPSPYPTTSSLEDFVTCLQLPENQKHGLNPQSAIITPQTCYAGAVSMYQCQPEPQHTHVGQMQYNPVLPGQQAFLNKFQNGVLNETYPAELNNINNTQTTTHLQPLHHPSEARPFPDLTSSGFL
Kind of assay: AhR direct luciferase reporter assay in HepG2 cells (HepG2 CYP1A1-LUC). It is filed as cell-based. The note with it: luciferase activity after 18 hours, medium with no exogenous AhR agonist or 10 nM VAF347, read-out: AhR potency (AhR antagonistic potency, IC50 class). An excerpt:
AhR Direct Luciferase Reporter Assay in HepG2 Cells
A stable cell line (HepG2 CYP1A1-LUC) was used in which part of the promoter region of the human CYP1A1 gene is stably integrated into the genome of human HepG2 hepatocytes (DSZM #ACC 180) in front of a Photinus pyralis Firefly Luciferase gene. A 1210 bp fragment comprising part of the human CYP1A1 promoter was isolated via SacI and BgIII restriction digestion from Lightswitch Clone S714555 (SwitchGearGenomics) and inserted between the SacI and BgIII sites in pGL4.30 (Promega #E8481) in front of the Firefly Luciferase gene. The resulting vector was linearized with NotI, transfected into HepG2 cells (DSMZ #ACC 180) and stably transfected clones selected with 250 μg/ml Hygromycin B. After repetitive rounds of subcloning and testing for robustly regulated luciferase activity after AhR agonist stimulation, a stable clonal HepG2 CYP1A1-Luc cell line was selected.
The HepG2 CYP1A1-Luc cells do express basal luciferase activity that can be increased via potent AhR agonists or decreased via potent AhR antagonists, added to the growth medium of the cells.
In typical reporter assays performed with this cell line, cells are grown in 96-well plates and AhR modulators are titrated into the growth medium in serial dilutions in RPMI-1640 Medium (Sigma #R7509) supplemented with 8,6% fetal calf serum (Sigma #F7524) and containing either no exogenous AhR agonist or 10 nM of the potent AhR agonist VAF347 (Calbiochem #182690). Cells are further cultivated for 18 hours and luciferase activities are determined from extracts of cells in buffers containing D-Luciferine and ATvP using a LUMIstar Optima microplate Luminometer from BMG Labtech.

For the compound `Cn1nc(C(N)=O)cc1C(=O)Nc1ccc2cc(-c3ccccc3C(F)(F)F)[nH]c2n1` [Example 2, 1-Methyl-n^5-(2-(2-(trifluoromethyl)phenyl)-1H-pyrrolo[2,3-b]pyridin-6-yl)-1H-pyrazole-3,5-dicarboxamide], the concentration for half-maximal inhibition (IC50) is 100 to 1000 nM.

Take `Cn1ncnc1C(=O)Nc1ccc2cc(-c3cc(F)ccc3C#N)[nH]c2n1` [4/3]: the IC50 lay within 100 to 1000 nM.

As for `Cn1nccc1C(=O)Nc1ccc2cc(-c3ccccc3OC(F)(F)F)[nH]c2n1` [Example 1/4, 1-Methyl-N-(2-(2-(trifluoromethoxy)phenyl)-1H-pyrrolo[2,3-b]pyridin-6-yl)-1H-pyrazole-5-carboxamide], the IC50 was above 1000 nM.

As for `Cn1ncnc1C(=O)Nc1ccc2cc(-c3ccc(F)cc3C(F)(F)F)[nH]c2n1` [Example 1/14, N-(2-(4-Fluoro-2-(trifluoromethyl)phenyl)-1H-pyrrolo[2,3-b]pyridin-6-yl)-1-methyl-1H-1,2,4-triazole-5-carboxamide], the IC50 is below 100 nM.

Turning to `CN(C)C(=O)c1ccccc1-c1cc2ccc(NC(=O)c3ncnn3C)nc2[nH]1` [Example 8, N-(2-(2-(Dimethylcarbamoyl)phenyl)-1H-pyrrolo[2,3-b]pyridin-6-yl)-1-methyl-1H-1,2,4-triazole-5-carboxamide], the IC50 was above 1000 nM.

For the compound `Cn1ncnc1C(=O)Nc1ccc2cc(-c3cc(F)c(F)cc3C(F)F)[nH]c2n1` [Example 1/28, N-(2-(2-(Difluoromethyl)-4,5-difluorophenyl)-1H-pyrrolo[2,3-b]pyridin-6-yl)-1-methyl-1H-1,2,4-triazole-5-carboxamide], the half-inhibitory concentration (IC50) was below 100 nM.

Consider `O=C(Nc1ccc2cc(-c3ccccc3C(F)(F)F)[nH]c2n1)c1cccnc1` [Example 1/10, N-(2-(2-(Trifluoromethyl)phenyl)-1H-pyrrolo[2,3-b]pyridin-6-yl) nicotinamide], for which the IC50 lay in the range of 100 to 1000 nM.

With `Cn1ncnc1C(=O)Nc1ccc2cc(-c3cc(Cl)ccc3C(F)(F)F)[nH]c2n1` [Example 1/26, N-(2-(5-Chloro-2-(trifluoromethyl)phenyl)-1H-pyrrolo[2,3-b]pyridin-6-yl)-1-methyl-11H-1,2,4-triazole-5-carboxamide], the IC50 was below 100 nM.

Consider `O=C(Nc1ccc2cc(-c3ccccc3C(F)(F)F)[nH]c2n1)c1ccccn1` [Example 1/7, N-(2-(2-(Trifluoromethyl)phenyl)-1H-pyrrolo[2,3-b]pyridin-6-yl) picolinamide], for which the 50% inhibitory concentration (IC50) was below 100 nM.

With `Cn1ncnc1C(=O)Nc1ccc2cc(-c3ccccc3C(N)=O)[nH]c2n1` [Example 7, N-(2-(2-Carbamoylphenyl)-1H-pyrrolo[2,3-b]pyridin-6-yl)-1-methyl-1H-1,2,4-triazole-5-carboxamide], the IC50 is 100 to 1000 nM.

For the compound `Cn1ncnc1C(=O)Nc1ccc2cc(-c3ccccc3C3CC3)[nH]c2n1` [Example 4, N-(2-(2-Cyclopropylphenyl)-1H-pyrrolo[2,3-b]pyridin-6-yl)-1-methyl-1H-1,2,4-triazole-5-carboxamide], the concentration for half-maximal inhibition (IC50) was below 100 nM.

On to `Cn1nccc1C(=O)Nc1ccc2cc(-c3cccc(OC(F)(F)F)c3)[nH]c2n1` [Example 1/5, 1-Methyl-N-(2-(3-(trifluoromethoxy)phenyl)-1H-pyrrolo[2,3-b]pyridin-6-yl)-1H-pyrazole-5-carboxamide], for which the IC50 was above 1000 nM.

For `Cn1ncnc1C(=O)Nc1ccc2c(C#N)c(-c3ccccc3C(F)F)[nH]c2n1` [Example 14, N-(3-Cyano-2-(2-(difluoromethyl)phenyl)-1H-pyrrolo[2,3-b]pyridin-6-yl)-1-methyl-1H-1,2,4-triazole-5-carboxamide], the IC50 was below 100 nM.

On to `O=C(Nc1ccc2cc(-c3ccccc3C(F)(F)F)[nH]c2n1)c1cc2ccoc2cn1` [Example 1/19, N-(2-(2-(Trifluoromethyl)phenyl)-1H-pyrrolo[2,3-b]pyridin-6-yl)furo[2,3-c]pyridine-5-carboxamide], for which the half-maximal inhibitory concentration (IC50) lay in the range of 100 to 1000 nM.
